IC50 data for 30 molecules are collected here from EP4692090A1 (Shanghai Fosun Pharmaceutical (Group) Co., Ltd., priority 2023, dated 2024).

Usually IC50 stands for the concentration needed to halve the response being measured.

The test system of the first assay is LoVo cells. Put plainly: LoVo cell proliferation assay (CellTiter-Glo). The assay is classed as cell-based. The note with it: Homo sapiens, LoVo, 120 h, LoVo cells, 2,000 cells per well, 5 days incubation, CellTiter-Glo; maximum concentration 10 µM, 9 concentrations; read-out: LoVo IC50. The method, then:
Test Example 2: LoVo cell proliferation assay
LoVo (ATCC, #CRL-229) cells in logarithmic growth phase were digested, counted, and plated into 96-well cell culture plates at 2,000 cells per well. The plates containing cells were incubated overnight at 37°C in a 5% CO2 incubator, and then test compounds with 3-fold gradient dilutions (maximum concentration: 10 µM, 9 concentrations) were added. DMSO was used as a blank control. After the LoVo cells containing the compounds or DMSO were incubated for an additional 5 days, an equal volume of CellTiter-Glo reagent (Promega, #7573) was added. After incubation at room temperature for 30 minutes, chemiluminescence was read using an Envision 2105 (PerkinElmer). The cell proliferation inhibition rate (%) for wells treated with each concentration of the compounds was calculated using the following formula. Then, with compound concentration as the horizontal axis and cell proliferation inhibition rate (%) as the vertical axis, GraphPad software was used to plot the data and determine the IC50 values of the test compounds. The results are shown in Table 2, wherein the IC50 ranges are defined as follows: A: ≤ 100 nM; 1000 nM ≥ B > 100 nM; C > 1000 nM.
Cell proliferation inhibition (%) = (1 - luminescence value of compound-treated group / average luminescence value of DMSO blank control group) × 100. Table 2. Inhibitory effect of compounds on LoVo growth
Background: ATP-based viability assays read luminescence as a measure of living cells.
`CC1c2cc(N3CCOC[C@H]3C)nc3c2c(nn3-c2cc[nH]n2)CCN1CC(F)F` (single isomer, unassigned) [Compound 45A]: the IC50 fell in the range of 100 to 1000 nM.

As to `CC1c2cc(N3CCOC[C@H]3C)nc3c2c(nn3-c2cc[nH]n2)CCN1S(C)(=N)=O` (single isomer, unassigned) [Compound 46A], the IC50 is 100 to 1000 nM.

For `CC1c2cc(N3CCOC[C@H]3C)nc3c(-c4cc[nH]n4)nn(c23)CCN1C` (single isomer, unassigned) [Compound 59A], the IC50 fell in the range of 100 to 1000 nM.

With `C[C@@H]1COCCN1c1cc2c3c(n1)c(-c1cc[nH]n1)nn3CCC2(O)C1CCOCC1` (single isomer, unassigned) [Compound 73A], the IC50 was above 1000 nM.

On to `C[C@@H]1COCCN1c1cc2c3c(n1)c(-c1cc[nH]n1)nn3CCC2(O)c1cnn(C)c1` (single isomer, unassigned) [Compound 74A], for which the IC50 is above 1000 nM.

As for `CC(C)C1c2cc(N3CCOC[C@H]3C)nc3c2c(nn3-c2cc[nH]n2)CCN1S(C)(=O)=O` (single isomer, unassigned) [Compound 140A], the IC50 is below 100 nM.

For the molecule `C[C@@H]1COCCN1c1cc2c3c(nn(-c4cc[nH]n4)c3n1)CCN(S(=O)(=O)C(F)(F)F)C2` [Compound 25, (R)-4-(2-(1H-pyrazol-3-yl)-7-((trifluoromethyl)sulfonyl)-6,7,8,9-tetrahydro-2H-1,2,3,7-tetraazabenzo[cd]azulen-4-yl)-3-methylmorpholine], the IC50 is below 100 nM.

In the case of `C[C@@H]1COCCN1c1cc2c3c(nn(-c4cc[nH]n4)c3n1)CCN(S(=O)(=O)C1COC1)C2` [Compound 26, (R)-3-methyl-4-(7-(oxetan-3-ylsulfonyl)-2-(1H-pyrazol-3-yl)-6,7,8,9-tetrahydro-2H-1,2,3,7-tetraazabenzo[cd]azulen-4-yl)morpholine], the IC50 was in the range of 100 to 1000 nM.

On to `CC1c2cc(N3CCOC[C@H]3C)nc3c2c(nn3-c2cc[nH]n2)CCN1c1cnn(C)c1` (stereo partly drawn) [Compound 43, (3R)-3-methyl-4-(6-methyl-7-(1-methyl-1H-pyrazol-4-yl)-2-(1H-pyrazol-3-yl)-6,7,8,9-tetrahydro-2H-1,2,3,7-tetraazabenzo[cd]azulen-4-yl)morpholine], for which the IC50 was 100 to 1000 nM.

On to `C[C@@H]1COCCN1c1cc2c3c(n1)c(-c1cc[nH]n1)nn3CCNC2` [Compound 51, (R)-4-(2-(1H-pyrazol-3-yl)-6,7,8,9-tetrahydro-1,3,7,9a-tetraazabenzo[cd]azulen-4-yl)-3-methylmorpholine], for which the IC50 lay in the range of 100 to 1000 nM.

Take `CC1c2cc(N3CCOC[C@H]3C)nc3c(-c4cc[nH]n4)nn(c23)CCN1S(C)(=O)=O` (stereo partly drawn) [Compound 60, (3R)-3-methyl-4-(6-methyl-7-(methylsulfonyl)-2-(1H-pyrazol-3-yl)-6,7,8,9-tetrahydro-1,3,7,9a-tetraazabenzo[cd]azulen-4-yl)morpholine]: the IC50 lay in the range of 100 to 1000 nM.

On to `C[C@@H]1COCCN1c1cc2c3c(n1)c(-c1cc[nH]n1)nn3CCN2S(C)(=O)=O` [Compound 64], for which the IC50 fell in the range of 100 to 1000 nM.

Take `C[C@@H]1COCCN1c1cc2c3c(n1)c(-c1cc[nH]n1)nn3CCC2(C)O` (stereo partly drawn) [Compound 71, 6-methyl-4-((R)-3-methylmorpholino)-2-(1H-pyrazol-3-yl)-7,8-dihydro-6H-pyrazolo[4,5,1-ij][1, 7]naphthyridin-6-ol]: the IC50 lay within 100 to 1000 nM.

In the case of `C[C@@H]1COCCN1c1cc2c3c(n1)c(-c1cc[nH]n1)nn3CCC(=O)N2[C@@H](C)CC(F)(F)F` [Compound 111A, 4-((R)-3-methylmorpholino)-2-(1H-pyrazol-3-yl)-6-((S)-4,4,4-trifluorobutan-2-yl)-8,9-dihydro-1,3,6,9a-tetraazabenzo[cd]azulene-7(6H)-one], the half-maximal inhibitory concentration (IC50) lay within 100 to 1000 nM.

As for `C[C@@H]1COCCN1c1cc2c3c(n1)c(-c1cc[nH]n1)nn3CCC(=O)N2[C@H](C)CC(F)(F)F` [Compound 111B, 4-((R)-3-methylmorpholino)-2-(1H-pyrazol-3-yl)-6-((R)-4,4,4-trifluorobutan-2-yl)-8,9-dihydro-1,3,6,9a-tetraazabenzo[cd]azulene-7(6H)-one], the IC50 was in the range of 100 to 1000 nM.

As to `C[C@@H]1COCCN1c1cc2c3c(nn(-c4cc[nH]n4)c3n1)CCN(S(=O)(=O)C1CC1)C2C1CC1` (stereo partly drawn) [Compound 143, (3R)-4-(6-cyclopropyl-7-(cyclopropylsulfonyl)-2-(1H-pyrazol-3-yl)-6,7,8,9-tetrahydro-2H-1,2,3,7-tetraazabenzo[cd]-azulen-4-yl)-3-methylmorpholine], the IC50 lay within 100 to 1000 nM.

On to `C[C@@H]1COCCN1c1cc2c3c(nn(-c4cc[nH]n4)c3n1)CCOC2C(F)F` (stereo partly drawn) [Compound 148, 6-(difluoromethyl)-4-((R)-3-methylmorpholino)-2-(1H-pyrazol-3-yl)-2,6,8,9-tetrahydro-7-oxa-1,2,3-triazabenzo[cd]azulene], for which the IC50 is below 100 nM.

As for `CC1c2cc(N3CCOC[C@H]3C)nc3c2c(nn3-c2cc[nH]n2)CCN1S(N)(=O)=O` (stereo partly drawn) [Compound 150, 6-methyl-4-((R)-3-methylmorpholino)-2-(1H-pyrazol-3-yl)-2,6,8,9-tetrahydro-7H-1,2,3,7-tetraazabenzene[cd]azulene-7-sulfonamide], the IC50 was 100 to 1000 nM.

The same assay, now with this note: Homo sapiens, LoVo, 120 h, read-out: LoVo IC50 (nM), LoVo cells, 2,000 cells per well, 5 days incubation, CellTiter-Glo; maximum concentration 10 µM, 9 concentrations.
Consider `C[C@@H]1COCCN1c1cc2c3c(nn(-c4cc[nH]n4)c3n1)CCC(=O)N2C12CC(C1)C2` [Compound 76, (R)-6-(bicyclo[1.1.1]pentan-1-yl)-4-(3-methylmorpholinyl)-2-(1H-pyrazol-3-yl)-2,6,8,9-tetrahydro-7H-1,2,3,6-tetraazabenzo[cd]azulene-7-one], for which the IC50 was below 100 nM.

Regarding `C[C@@H]1COCCN1c1cc2c3c(nn(-c4cc[nH]n4)c3n1)CCC(=O)N2C1(CF)CC1` [Compound 80, (R)-6-(1-(fluoromethyl)cyclopropyl)-4-(3-methylmorpholinyl)-2-(1H-pyrazol-3-yl)-2,6,8,9-tetrahydro-7H-1,2,3,6-tetraazabenzo[cd]azulene-7-one], the IC50 was below 100 nM.

The same assay, now with this note: LoVo cells, 2,000 cells per well, 5 days incubation, CellTiter-Glo; maximum concentration 10 µM, 9 concentrations; read-out: LoVo IC50.
For the molecule `CC1c2cc(N3CCOC[C@H]3C)nc3c2c(nn3-c2cc[nH]n2)CCN1CC1COC1` (single isomer, unassigned) [Compound 44B], the IC50 was in the range of 100 to 1000 nM.

Regarding `CC1c2cc(N3CCOC[C@H]3C)nc3c2c(nn3-c2cc[nH]n2)CCN1CC(F)F` (single isomer, unassigned) [Compound 45B], the IC50 was in the range of 100 to 1000 nM.

As to `CC1c2cc(N3CCOC[C@H]3C)nc3c2c(nn3-c2cc[nH]n2)CCN1S(C)(=N)=O` (single isomer, unassigned) [Compound 46B], the IC50 lay within 100 to 1000 nM.

Consider `CC1c2cc(N3CCOC[C@H]3C)nc3c2c(nn3-c2cc[nH]n2)CCN1S(C)(=N)=O` (single isomer, unassigned) [Compound 46D], for which the IC50 fell in the range of 100 to 1000 nM.

For `CC1c2cc(N3CCOC[C@H]3C)nc3c(-c4cc[nH]n4)nn(c23)CCN1C` (single isomer, unassigned) [Compound 59B], the IC50 lay within 100 to 1000 nM.

`C[C@@H]1COCCN1c1cc2c3c(n1)c(-c1cc[nH]n1)nn3CCC2(O)C1CCOCC1` (single isomer, unassigned) [Compound 73B]: the IC50 was above 1000 nM.

Regarding `C[C@@H]1COCCN1c1cc2c3c(n1)c(-c1cc[nH]n1)nn3CCC2(O)c1cnn(C)c1` (single isomer, unassigned) [Compound 74B], the IC50 was above 1000 nM.

On to `CC(C)C1c2cc(N3CCOC[C@H]3C)nc3c2c(nn3-c2cc[nH]n2)CCN1S(C)(=O)=O` (single isomer, unassigned) [Compound 140B], for which the IC50 was in the range of 100 to 1000 nM.

A further assay deals with T1, ATR kinase (Homo sapiens, UniProt Q13535).
T1 construct: purchased Eurofins 14-953
T1 sequence (Q13535 whole entry): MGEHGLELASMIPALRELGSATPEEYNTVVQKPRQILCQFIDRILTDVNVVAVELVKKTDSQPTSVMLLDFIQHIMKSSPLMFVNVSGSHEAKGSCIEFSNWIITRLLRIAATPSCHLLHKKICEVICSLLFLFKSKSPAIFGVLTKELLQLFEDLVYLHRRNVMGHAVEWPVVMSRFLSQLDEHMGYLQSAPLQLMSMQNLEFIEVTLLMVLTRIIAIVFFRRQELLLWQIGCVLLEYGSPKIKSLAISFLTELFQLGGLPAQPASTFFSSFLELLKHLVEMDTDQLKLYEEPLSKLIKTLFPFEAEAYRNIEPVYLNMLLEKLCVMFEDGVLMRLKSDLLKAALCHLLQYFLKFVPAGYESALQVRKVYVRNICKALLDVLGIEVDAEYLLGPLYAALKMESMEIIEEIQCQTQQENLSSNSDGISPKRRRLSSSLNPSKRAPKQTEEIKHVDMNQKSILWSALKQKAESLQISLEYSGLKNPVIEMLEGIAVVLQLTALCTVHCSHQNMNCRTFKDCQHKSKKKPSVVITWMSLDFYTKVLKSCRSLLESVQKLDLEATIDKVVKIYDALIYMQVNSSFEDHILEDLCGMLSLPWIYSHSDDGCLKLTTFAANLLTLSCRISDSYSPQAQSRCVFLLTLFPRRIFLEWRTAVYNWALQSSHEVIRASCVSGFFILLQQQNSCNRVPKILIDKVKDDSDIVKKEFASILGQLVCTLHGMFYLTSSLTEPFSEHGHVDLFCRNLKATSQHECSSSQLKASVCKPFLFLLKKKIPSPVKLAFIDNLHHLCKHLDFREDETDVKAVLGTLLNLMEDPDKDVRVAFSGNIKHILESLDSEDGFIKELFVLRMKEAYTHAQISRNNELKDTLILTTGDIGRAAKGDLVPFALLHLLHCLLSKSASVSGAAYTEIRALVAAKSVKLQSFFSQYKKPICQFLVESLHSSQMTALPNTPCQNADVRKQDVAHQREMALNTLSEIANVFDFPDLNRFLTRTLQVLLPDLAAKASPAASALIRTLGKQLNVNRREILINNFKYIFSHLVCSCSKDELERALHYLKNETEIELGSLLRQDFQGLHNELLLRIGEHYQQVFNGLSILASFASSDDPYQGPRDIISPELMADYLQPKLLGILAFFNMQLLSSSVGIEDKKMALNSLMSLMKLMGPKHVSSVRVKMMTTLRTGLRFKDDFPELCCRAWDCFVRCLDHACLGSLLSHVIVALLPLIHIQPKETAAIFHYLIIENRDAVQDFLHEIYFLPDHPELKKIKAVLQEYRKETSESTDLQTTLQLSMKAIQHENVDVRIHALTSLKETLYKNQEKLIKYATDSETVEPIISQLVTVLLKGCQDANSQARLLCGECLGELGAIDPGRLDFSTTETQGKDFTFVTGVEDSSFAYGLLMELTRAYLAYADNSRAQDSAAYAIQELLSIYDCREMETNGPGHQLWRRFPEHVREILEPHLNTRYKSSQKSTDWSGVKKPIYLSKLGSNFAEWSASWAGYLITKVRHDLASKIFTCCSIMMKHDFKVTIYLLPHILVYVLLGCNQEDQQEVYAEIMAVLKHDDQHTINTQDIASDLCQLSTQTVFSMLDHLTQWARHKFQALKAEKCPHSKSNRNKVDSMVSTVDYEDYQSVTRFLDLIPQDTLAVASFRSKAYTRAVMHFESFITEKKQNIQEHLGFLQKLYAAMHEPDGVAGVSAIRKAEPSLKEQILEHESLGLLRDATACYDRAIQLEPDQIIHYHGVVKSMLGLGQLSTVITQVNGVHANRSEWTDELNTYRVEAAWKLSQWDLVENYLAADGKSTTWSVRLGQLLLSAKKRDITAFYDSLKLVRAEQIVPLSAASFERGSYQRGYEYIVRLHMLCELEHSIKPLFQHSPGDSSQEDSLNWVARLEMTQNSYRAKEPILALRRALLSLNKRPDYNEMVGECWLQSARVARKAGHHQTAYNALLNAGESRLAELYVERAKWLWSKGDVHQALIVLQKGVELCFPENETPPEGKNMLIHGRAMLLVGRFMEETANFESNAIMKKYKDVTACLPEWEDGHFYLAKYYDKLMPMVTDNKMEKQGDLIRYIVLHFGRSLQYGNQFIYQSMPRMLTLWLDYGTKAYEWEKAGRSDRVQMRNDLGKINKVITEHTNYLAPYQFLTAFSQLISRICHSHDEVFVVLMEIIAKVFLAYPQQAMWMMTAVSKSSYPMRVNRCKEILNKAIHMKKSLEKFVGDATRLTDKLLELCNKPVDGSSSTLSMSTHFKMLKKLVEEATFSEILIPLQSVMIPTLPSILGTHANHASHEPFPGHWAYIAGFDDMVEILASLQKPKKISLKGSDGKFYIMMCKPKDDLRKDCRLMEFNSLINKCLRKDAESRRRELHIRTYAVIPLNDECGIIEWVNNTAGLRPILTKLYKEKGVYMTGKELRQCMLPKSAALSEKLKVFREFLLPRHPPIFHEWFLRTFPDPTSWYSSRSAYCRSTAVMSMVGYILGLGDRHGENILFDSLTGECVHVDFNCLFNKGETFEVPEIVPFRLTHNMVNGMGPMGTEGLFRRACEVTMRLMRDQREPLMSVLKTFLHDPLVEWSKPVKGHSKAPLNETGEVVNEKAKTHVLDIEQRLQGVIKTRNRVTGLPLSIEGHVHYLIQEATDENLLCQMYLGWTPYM
T1 sequence (Q8WXE1 whole entry partner): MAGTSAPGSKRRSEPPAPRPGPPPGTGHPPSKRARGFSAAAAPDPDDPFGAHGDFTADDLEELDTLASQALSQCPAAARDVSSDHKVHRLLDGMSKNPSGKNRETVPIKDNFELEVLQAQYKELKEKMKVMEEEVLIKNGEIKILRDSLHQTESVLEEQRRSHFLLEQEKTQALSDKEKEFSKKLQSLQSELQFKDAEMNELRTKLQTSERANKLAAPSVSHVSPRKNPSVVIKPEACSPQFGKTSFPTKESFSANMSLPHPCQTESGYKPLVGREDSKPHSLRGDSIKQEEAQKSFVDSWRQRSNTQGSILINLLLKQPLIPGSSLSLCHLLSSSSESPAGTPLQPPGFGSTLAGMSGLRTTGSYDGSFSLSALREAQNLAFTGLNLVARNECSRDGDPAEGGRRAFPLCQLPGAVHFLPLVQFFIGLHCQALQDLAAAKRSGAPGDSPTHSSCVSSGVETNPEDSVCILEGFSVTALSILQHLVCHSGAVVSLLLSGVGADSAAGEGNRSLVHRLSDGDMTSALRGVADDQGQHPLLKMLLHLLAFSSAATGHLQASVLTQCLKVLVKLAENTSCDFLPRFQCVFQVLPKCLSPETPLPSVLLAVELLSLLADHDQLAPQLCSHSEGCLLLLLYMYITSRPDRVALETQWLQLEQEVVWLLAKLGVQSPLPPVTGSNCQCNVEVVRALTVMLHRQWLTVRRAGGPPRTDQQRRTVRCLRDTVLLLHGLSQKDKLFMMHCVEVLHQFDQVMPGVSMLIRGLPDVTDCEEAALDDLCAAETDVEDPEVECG
The assay can be described thus: Inhibitory effect on ATR kinase activity (Caliper mobility shift, FAM-labeled RAD17 peptide substrate). In kind it is biochemical. Conditions: 1 nM ATR kinase (Eurofins), 28°C for 3 hours, maximum concentration 1 µM, 10 concentrations, read-out: ATR kinase IC50. How it is done:
Test Example 1: Inhibitory effect of the compounds of the present disclosure on ATR kinase activity
Test compounds to be tested were serially diluted with DMSO (maximum concentration 1 µM, 10 concentrations with 3-fold serial dilution) and added to the wells of a 384-well reaction plate (Corning, #4512). 1 nM ATR kinase (Eurofins, #14-953), 5 mM substrate (FAM-labeled RAD17 peptide, FAM-ASELPASQPQPFSAKKK), 5 mM ATP and the compounds with corresponding concentrations reacted in a kinase reaction solution (50 mM HEPES, pH 7.5; 0.0015% Brij-35; 10 mM MnCl2, total volume of 20 µL) at 28°C for 3 hours. The reaction was terminated by adding 30 µL of stop solution (100 mM HEPES, pH 7.5; 0.015% Brij-35; 0.2% Coating Reagent #3, PerkinElmer; 50 mM EDTA). The reaction plate was placed on a Caliper instrument (PerkinElmer) for testing. The relative inhibitory activity of each compound concentration group was calculated using the following formula: % Inhibition = (Conversion rate of the blank control group without compound added - Conversion rate of the test compound group) / (Conversion rate of the blank control group - […]). The IC50 values were calculated using GraphPad analysis and fitted. […] Table 1. Inhibitory effect (IC50) of compounds on ATR kinase activity.
For `CC1c2cc(N3CCOC[C@H]3C)nc3c2c(nn3-c2cc[nH]n2)CCN1C` (single isomer, unassigned) [Compound 35B], the IC50 was below 10 nM.

In the case of `C[C@@H]1COCCN1c1cc2c3c(n1)c(-c1cc[nH]n1)nn3CCN2` [Compound 61, (R)-4-(1-(1H-pyrazol-3-yl)-4,5-dihydro-3H-2,2a,5,8-tetraazaacenaphthen-7-yl)-3-methylmorpholine], the IC50 lay in the range of 1000 to 2500 nM.
